From ChEMBL document CHEMBL6092168, “Identification of novel indolinone derivatives as CTSC inhibitors to treat inflammatory bowel disease by modulating inflammatory factors” (Eur J Med Chem, 2024)
Activity calls are given as the source filed them. The calls are words filed in the database; no cut-off is given here.

Assays:
RAW264.7 [1] = assay: Anti-inflammatory activity in mouse RAW264.7 cells assessed as inhibition of LPS-induced NO production preincubated for 1 hr followed by LPS addition and measured after 24 hrs by Griess reagent based assay; format: functional, cell-based
RAW264.7 [2] = assay: Anti-inflammatory activity in mouse RAW264.7 cells assessed as inhibition of LPS-induced TNF-alpha production at 5 uM preincubated for 1 hr followed by LPS addition and measured after 24 hrs by ELISA relative to control; format: functional
Dipeptidyl peptidase 1 = Dipeptidyl peptidase 1 (Homo sapiens, UniProt P53634); assay: Inhibition of human recombinant Cathepsin C using Gly-Phe-AFC as substrate preincubated for 3 hrs followed by substrate addition and measured after 1 hr by fluorescence based multifunctional microplate reader analysis
RAW264.7 [3] = assay: Anti-inflammatory activity in mouse RAW264.7 cells assessed as inhibition of LPS-induced IL-1beta production at 5 uM preincubated for 1 hr followed by LPS addition and measured after 24 hrs by ELISA relative to control; format: functional

Chain of Dipeptidyl peptidase 1 (P53634 25-134 limits assumed): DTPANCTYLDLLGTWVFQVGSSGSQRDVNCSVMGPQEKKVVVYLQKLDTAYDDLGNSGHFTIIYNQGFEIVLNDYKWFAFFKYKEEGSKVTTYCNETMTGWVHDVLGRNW
Chain of Dipeptidyl peptidase 1 (P53634 231-394 limits assumed): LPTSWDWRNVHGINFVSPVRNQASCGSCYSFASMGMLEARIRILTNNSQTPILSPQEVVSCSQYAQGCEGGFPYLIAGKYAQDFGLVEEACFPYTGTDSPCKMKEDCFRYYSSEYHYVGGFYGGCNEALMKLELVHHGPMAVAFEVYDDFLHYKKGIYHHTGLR
Chain of Dipeptidyl peptidase 1 (P53634 395-463 limits assumed): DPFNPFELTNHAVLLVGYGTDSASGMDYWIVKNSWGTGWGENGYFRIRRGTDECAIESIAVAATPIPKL

Row | IC50 (RAW264.7 [1]) | IC50 (Dipeptidyl peptidase 1) | Compound | Activity (RAW264.7 [2]; time 25.0 hrs) | Activity (RAW264.7 [3]; time 25.0 hrs) | Activity (RAW264.7 [2]; time 25 hrs) | Activity (RAW264.7 [3]; time 25 hrs)
1 | > 50 µM | 0.77 µM | CC(=O)Nc1ccc(NC(=O)c2cccc(-c3ccc(CN4CCOCC4)cc3)c2)cc1 | inactive | inactive | – | –
2 | 18.7 µM | > 1 µM | Cc1ccc(-c2cccc3c2NC(=O)/C3=C\c2ccnc3ccccc23)cc1 | inactive | inactive | – | –
3 | 6.1 µM | 0.31 µM | Nc1c(C(=O)Nc2ccc3ccccc3c2)cccc1-c1ccc(CN2CCOCC2)cc1 | – | – | 69.7% | 64.2%
4 | > 50 µM | > 1 µM | NC(=O)c1ccc(NC(=O)c2cccc(-c3ccc(CN4CCOCC4)cc3)c2)cc1 | inactive | inactive | – | –
5 | 20.2 µM | 0.292 µM | CC(=O)c1cccc(NC(=O)c2cccc(-c3ccc(CN4CCOCC4)cc3)c2)c1 | – | – | 50.3% | 47.4%
6 | > 50 µM | 0.251 µM | O=C(Nc1cncc2ccccc12)c1cccc(-c2ccc(CN3CCOCC3)cc2)n1 | inactive | inactive | – | –
7 | 14.8 µM | 0.311 µM | O=C1Nc2c(cccc2-c2ccc3cn[nH]c3c2)/C1=C/c1ccnc2ccccc12 | – | – | 43.3% | 65.3%
8 | > 50 µM | > 1 µM | Nc1cccc(NC(=O)c2cccc(-c3ccc(CN4CCOCC4)cc3)c2)c1 | inactive | inactive | – | –
9 | > 50 µM | > 1 µM | Nc1ccccc1NC(=O)c1cccc(-c2ccc(CN3CCOCC3)cc2)c1 | inactive | inactive | – | –
10 | 9.8 µM | 0.19 µM | O=C1Nc2c(cccc2-c2ccc3[nH]ncc3c2)/C1=C/c1ccnc2ccccc12 | – | – | 41.3% | 62%
11 | > 50 µM | > 1 µM | O=C(Nc1ccccc1F)c1cccc(-c2ccc(CN3CCOCC3)cc2)c1 | inactive | inactive | – | –
12 | 16.2 µM | 0.303 µM | CC(=O)Nc1ccc(-c2cccc3c2NC(=O)/C3=C\c2ccnc3ccccc23)cc1 | inactive | inactive | – | –
13 | > 50 µM | > 1 µM | Nc1ccc(NC(=O)c2cccc(-c3ccc(CN4CCOCC4)cc3)c2)cc1 | inactive | inactive | – | –
14 | > 50 µM | > 1 µM | O=C(Nc1ccccc1)c1cccc(-c2ccc(CN3CCOCC3)cc2)c1 | inactive | inactive | – | –
15 | > 50 µM | > 1 µM | CNC(=O)c1ccc(NC(=O)c2cccc(-c3ccc(CN4CCOCC4)cc3)c2)cc1 | inactive | inactive | – | –
16 | 15.1 µM | > 1 µM | CN(C)c1ccc(-c2cccc3c2NC(=O)/C3=C\c2ccnc3ccccc23)cc1 | inactive | inactive | – | –
17 | > 50 µM | > 1 µM | CC(C)c1ccc(-c2cccc3c2NC(=O)/C3=C\c2ccnc3ccccc23)cc1 | inactive | inactive | – | –
18 | > 50 µM | > 1 µM | O=C1Nc2c(cccc2-c2ccc(OC(F)(F)F)cc2)/C1=C/c1ccnc2ccccc12 | inactive | inactive | – | –
19 | > 50 µM | > 1 µM | CNC(=O)c1ccccc1NC(=O)c1cccc(-c2ccc(CN3CCOCC3)cc2)c1 | inactive | inactive | – | –
20 | > 50 µM | > 1 µM | O=C(Nc1cccc(C(F)(F)F)c1)c1cccc(-c2ccc(CN3CCOCC3)cc2)c1 | inactive | inactive | – | –
21 | 5.3 µM | 0.222 µM | Nc1c(C(=O)Nc2cncc3ccccc23)cccc1-c1ccc(CN2CCOCC2)cc1 | – | – | 60.8% | 62.3%
